Results: US8497380B2, “Substituted acetophenones useful as PDE4 inhibitors” (Leo Pharma A/S, priority 2006, dated 2013)

The compounds below were run on Human peripheral blood mononuclear cells (PBMC) (assay: TNFalfa-Release). Conditions: inhibition of TNF-a secretion, PBMC pre-incubated 30 minutes, stimulated 18 hours with lipopolysaccharide.
Type: cell-based
Procedure, shortened: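 Buffy-coat PBMC at 5×105 c/ml in RPMI1640 with 2% FCS were pre-incubated 30 min with compound, then stimulated 18 h with LPS 1 mg/ml. Supernatant TNF-a measured by enzyme immunoassay; pIC50 from inhibition curves relative to LPS-stimulated and unstimulated wells.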

Compound	IC50 [µM]
C=CCOc1c(OC)ccc(C(=O)Cc2c(Cl)cncc2Cl)c1OCCc1ccc(F)cc1 [Compound 269, 1-{3-Allyloxy-2-[2-(4-fluoro-phenyl)-ethoxy]-4-methoxy-phenyl}-2-(3,5-dichloro-pyridin-4-yl)-ethanone]	< 1
COc1ccc(C(=O)Cc2c(Cl)c[n+]([O-])cc2Cl)c(OCC(=O)NCc2ccccc2)c1OC [Compound 270, N-Benzyl-2-{6-[2-(3,5-dichloro-1-oxy-pyridin-4-yl)-acetyl]-2,3-dimethoxy-phenoxy}-acetamide]	< 1
COc1ccc(C(=O)Cc2c(Cl)c[n+]([O-])cc2Cl)c(OCCc2ccccc2)c1OC [Compound 271, 2-(3,5-Dichloro-1-oxy-pyridin-4-yl)-1-(3,4-dimethoxy-2-phenethyloxy-phenyl)-ethanone]	< 1
COc1ccc(C(=O)Cc2c(Cl)cncc2Cl)c(OCCc2ccncc2)c1OC [Compound 277, 2-(3,5-Dichloro-pyridin-4-yl)-1-[3,4-dimethoxy-2-(2-pyridin-4-yl-ethoxy)-phenyl]-ethanone]	< 1
COc1ccc(C(=O)Cc2c(Cl)cncc2Cl)c(OCCc2ccc(C#N)cc2)c1OC [Compound 278, 4-(2-{6-[2-(3,5-Dichloro-pyridin-4-yl)-acetyl]-2,3-dimethoxy-phenoxy}-ethyl)-benzonitrile]	< 1
COc1ccc(C(=O)Cc2c(Cl)cncc2Cl)c(OCCc2ccccn2)c1OC [Compound 279, 2-(3,5-Dichloro-pyridin-4-yl)-1-[3,4-dimethoxy-2-(2-pyridin-2-yl-ethoxy)-phenyl]-ethanone]	< 1
COc1ccc(C(=O)Cc2c(Cl)cncc2Cl)c(OCCc2cccnc2)c1OC [Compound 280, 2-(3,5-Dichloro-pyridin-4-yl)-1-[3,4-dimethoxy-2-(2-pyridin-3-yl-ethoxy)-phenyl]-ethanone]	< 1
COc1ccc(C(=O)Cc2c(Cl)cncc2Cl)c(OCCc2ccc([S+](C)[O-])cc2)c1OC (centres unmarked) [Compound 281, 2-(3,5-Dichloro-pyridin-4-yl)-1-{2-[2-(4-methanesulfinyl-phenyl)-ethoxy]-3,4-dimethoxy-phenyl}-ethanone]	< 1
COc1ccc(C(=O)Cc2c(Cl)cncc2Cl)c(OCCc2ccc(S(C)(=O)=O)cc2)c1OC [Compound 282, 2-(3,5-Dichloro-pyridin-4-yl)-1-{2-[2-(4-methanesulfonyl-phenyl)-ethoxy]-3,4-dimethoxy-phenyl}-ethanone]	< 1
COc1ccc(C(=O)Cc2c(Cl)cncc2Cl)c(OCC(C)c2ccccc2)c1OC (centres unmarked) [Compound 284, 2-(3,5-Dichloro-pyridin-4-yl)-1-[3,4-dimethoxy-2-(2-phenyl-propoxy)-phenyl]-ethanone]	< 1
COc1ccc(C(=O)Cc2c(Cl)cncc2Cl)c(OC(C)Cc2ccccc2)c1OC (centres unmarked) [Compound 285, 2-(3,5-Dichloro-pyridin-4-yl)-1-[3,4-dimethoxy-2-(1-methyl-2-phenyl-ethoxy)-phenyl]-ethanone]	< 1
CCCNC(=O)COc1c(C(=O)Cc2c(Cl)cccc2Cl)ccc(OC)c1OC [Compound 288, 2-{6-[2-(2,6-Dichloro-phenyl)-acetyl]-2,3-dimethoxy-phenoxy}-N-propyl-acetamide]	< 1
CCCNC(=O)COc1c(C(=O)Cc2ccncc2)ccc(OC)c1OC [Compound 289, 2-(2,3-Dimethoxy-6-(2-pyridin-4-yl-acetyl)-phenoxy)-N-propyl-acetamide]	< 1
CCCNC(=O)COc1c(C(=O)Cc2ccnc3ccccc23)ccc(OC)c1OC [Compound 290]	< 1
CCCNC(=O)COc1c(C(=O)Cc2ccncc2Br)ccc(OC)c1OC [Compound 292, 2-{6-[2-(3-Bromo-pyridin-4-yl)-acetyl]-2,3-dimethoxy-phenoxy}-N-propyl-acetamide]	< 1
CCCNC(=O)COc1c(C(=O)Cc2c(Br)cncc2Br)ccc(OC)c1OC [Compound 293, 2-{6-[2-(3,5-Dibromo-pyridin-4-yl)-acetyl]-2,3-dimethoxy-phenoxy}-N-propyl-acetamide]	< 1
COc1ccc(C(=O)Cc2c(Cl)cncc2Cl)c(OCC(=O)O)c1OC [Compound 504, {6-[2-(3,5-Dichloro-pyridin-4-yl)-acetyl]-2,3-dimethoxy-phenoxy}-acetic acid]	< 1
